Assay [1] deals with B16-F10. In words: Induction of apoptosis in mouse B16-F10 cells at 4 uM measured for 48 hrs by Annexin-V/FITC staining based flow cytometry analysis relative to control. The format is functional.
In a further assay the target is Histone deacetylase 1 (Homo sapiens, UniProt Q13547). In words: Inhibition of human recombinant HDAC1 using Ac-Leu-Gly-Lys (Ac)-AMC as substrate preincubated with compound for 10 mins followed by substrate addition and measured after 45 mins by TECAN microtiter plate reader analysis.
Histone deacetylase 1, sequence (Q13547 whole entry): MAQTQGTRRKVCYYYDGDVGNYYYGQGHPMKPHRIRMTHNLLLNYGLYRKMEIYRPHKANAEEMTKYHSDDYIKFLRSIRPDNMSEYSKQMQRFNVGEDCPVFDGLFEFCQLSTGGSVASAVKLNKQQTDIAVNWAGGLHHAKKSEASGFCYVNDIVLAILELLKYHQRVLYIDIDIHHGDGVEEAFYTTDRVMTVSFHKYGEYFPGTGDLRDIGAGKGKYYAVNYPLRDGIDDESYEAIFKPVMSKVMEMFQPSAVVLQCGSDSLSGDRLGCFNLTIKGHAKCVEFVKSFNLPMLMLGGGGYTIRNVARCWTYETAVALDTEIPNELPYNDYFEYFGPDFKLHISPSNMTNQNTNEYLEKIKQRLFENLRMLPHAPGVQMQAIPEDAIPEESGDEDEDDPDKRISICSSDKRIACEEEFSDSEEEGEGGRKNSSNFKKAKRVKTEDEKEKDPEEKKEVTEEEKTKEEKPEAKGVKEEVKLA
Another assay addresses T1, Histone deacetylase 7 (Homo sapiens, UniProt Q8WUI4).
T1 sequence (Q8WUI4 whole entry): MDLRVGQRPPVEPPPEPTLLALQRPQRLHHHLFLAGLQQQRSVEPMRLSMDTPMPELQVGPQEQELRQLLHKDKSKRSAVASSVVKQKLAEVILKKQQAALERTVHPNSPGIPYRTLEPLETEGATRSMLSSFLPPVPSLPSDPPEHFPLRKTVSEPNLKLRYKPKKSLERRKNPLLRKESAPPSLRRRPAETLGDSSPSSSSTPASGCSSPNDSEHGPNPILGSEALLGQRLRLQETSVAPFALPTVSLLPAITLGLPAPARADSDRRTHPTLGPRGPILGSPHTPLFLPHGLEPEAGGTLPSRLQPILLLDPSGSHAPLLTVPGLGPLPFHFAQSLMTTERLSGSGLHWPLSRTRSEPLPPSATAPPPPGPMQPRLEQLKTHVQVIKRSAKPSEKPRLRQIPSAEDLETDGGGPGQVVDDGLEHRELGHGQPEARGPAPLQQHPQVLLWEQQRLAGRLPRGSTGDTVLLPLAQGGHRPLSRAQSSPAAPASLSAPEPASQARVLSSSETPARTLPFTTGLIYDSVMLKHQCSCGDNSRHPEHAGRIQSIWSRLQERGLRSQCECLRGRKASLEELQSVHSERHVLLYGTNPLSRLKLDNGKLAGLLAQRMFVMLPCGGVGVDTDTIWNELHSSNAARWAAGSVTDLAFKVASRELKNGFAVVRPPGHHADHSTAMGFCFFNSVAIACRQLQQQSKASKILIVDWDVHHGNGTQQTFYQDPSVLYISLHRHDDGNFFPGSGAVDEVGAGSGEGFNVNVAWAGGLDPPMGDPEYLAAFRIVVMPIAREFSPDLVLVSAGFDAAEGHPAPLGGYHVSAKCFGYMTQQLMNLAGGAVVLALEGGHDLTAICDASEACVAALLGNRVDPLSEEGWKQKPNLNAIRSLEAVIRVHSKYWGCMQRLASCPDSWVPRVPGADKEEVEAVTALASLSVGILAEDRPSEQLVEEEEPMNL
In words: Inhibition of human recombinant HDAC7 using Ac-Leu-Gly-Lys (Tfa)-AMC as substrate preincubated with compound for 10 mins followed by substrate addition and measured after 45 mins by TECAN microtiter plate reader analysis.

Assay [2] deals with T2, Protein deacetylase HDAC6 (Mus musculus) (UniProt Q9Z2V5).
T2 sequence (whole entry): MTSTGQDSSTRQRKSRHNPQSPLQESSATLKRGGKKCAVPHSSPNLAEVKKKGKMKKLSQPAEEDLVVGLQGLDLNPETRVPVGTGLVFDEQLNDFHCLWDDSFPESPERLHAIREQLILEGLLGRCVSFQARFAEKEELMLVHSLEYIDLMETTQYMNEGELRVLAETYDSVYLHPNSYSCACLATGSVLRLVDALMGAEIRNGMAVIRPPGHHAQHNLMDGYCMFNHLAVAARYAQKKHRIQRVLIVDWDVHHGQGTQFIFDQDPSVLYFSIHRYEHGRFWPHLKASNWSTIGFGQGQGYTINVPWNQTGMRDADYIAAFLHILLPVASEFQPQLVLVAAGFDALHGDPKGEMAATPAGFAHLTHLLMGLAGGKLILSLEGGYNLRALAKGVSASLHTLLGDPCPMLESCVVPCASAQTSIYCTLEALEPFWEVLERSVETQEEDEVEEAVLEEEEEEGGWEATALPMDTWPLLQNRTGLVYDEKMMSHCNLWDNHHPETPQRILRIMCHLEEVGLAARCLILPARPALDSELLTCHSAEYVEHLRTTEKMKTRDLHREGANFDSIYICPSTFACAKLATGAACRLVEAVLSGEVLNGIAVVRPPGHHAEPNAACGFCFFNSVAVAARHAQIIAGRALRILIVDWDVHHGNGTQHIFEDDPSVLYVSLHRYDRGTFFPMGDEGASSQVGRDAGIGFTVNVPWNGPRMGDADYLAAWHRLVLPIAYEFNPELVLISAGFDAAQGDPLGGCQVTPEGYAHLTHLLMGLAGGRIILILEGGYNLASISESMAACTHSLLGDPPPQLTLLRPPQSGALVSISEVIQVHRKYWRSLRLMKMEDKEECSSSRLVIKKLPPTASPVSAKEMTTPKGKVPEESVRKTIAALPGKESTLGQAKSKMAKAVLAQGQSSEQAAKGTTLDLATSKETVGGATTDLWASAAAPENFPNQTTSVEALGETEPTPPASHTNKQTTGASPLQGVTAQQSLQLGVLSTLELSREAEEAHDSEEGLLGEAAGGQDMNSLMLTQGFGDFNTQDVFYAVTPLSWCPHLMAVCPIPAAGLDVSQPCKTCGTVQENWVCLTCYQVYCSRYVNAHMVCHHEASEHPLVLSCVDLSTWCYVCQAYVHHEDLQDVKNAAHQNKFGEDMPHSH
The experiment in a line: Inhibition of HDAC6 in mouse B16-F10 cells assessed as effect on acetylated alpha-tubulin level at 1 to 2 uM measured for 24 hrs by Western blot analysis. Type of assay: cell-based. The note with it: dose 1-2 µM. A general note: Immunoblotting shows a protein as a band on a membrane.

A further assay addresses T3, Histone deacetylase 8 (Homo sapiens, UniProt Q9BY41).
T3 sequence (Q9BY41 whole entry): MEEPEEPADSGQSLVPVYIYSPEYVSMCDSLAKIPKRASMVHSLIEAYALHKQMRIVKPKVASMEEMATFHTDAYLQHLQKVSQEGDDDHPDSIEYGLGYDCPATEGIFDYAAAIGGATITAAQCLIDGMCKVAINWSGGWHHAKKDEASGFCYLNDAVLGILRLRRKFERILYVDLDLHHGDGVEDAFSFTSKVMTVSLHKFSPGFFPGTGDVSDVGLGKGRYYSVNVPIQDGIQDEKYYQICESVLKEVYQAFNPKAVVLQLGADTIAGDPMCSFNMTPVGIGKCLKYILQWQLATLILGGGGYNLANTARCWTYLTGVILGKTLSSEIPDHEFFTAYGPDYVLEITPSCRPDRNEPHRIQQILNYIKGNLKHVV
The experiment in a line: Inhibition of human recombinant HDAC8 using Ac-Leu-Gly-Lys (Tfa)-AMC as substrate preincubated with compound for 10 mins followed by substrate addition and measured after 45 mins by TECAN microtiter plate reader analysis.

For assay [3], the system named is B16-F10. The experiment in a line: Antitumor immunity against mouse B16-F10 cells implanted in C57BL/6 mouse model assessed as increase in CD3+ CD4+ T cells at 25 mg/kg, po administered for 9 days (reference value: 1.50%). Type of assay: functional. The note with it: time 9 day.
Assay [4] is described as follows: Antiproliferative activity against human MINO cells assessed as reduction in cell viability measured for 48 hrs by MTT assay. The format is functional, cell-based. Background: Formazan colour is commonly taken as a measure of viable cells.

Structures are written as SMILES. pIC50: −log10 of the molar value. Active and inactive are the calls of the source. No cut-off for these calls is given here. A value given as a limit tells only on which side of the number the result lay.

One may read the pIC50 as −log10 of the IC50, conventionally taken in molar units.

On to `CCCNNC(=O)c1ccc(CNC(=O)c2ncc(CNc3ccccc3)s2)cc1`, for which the results for the Activity in the assay with B16-F10 [1] and in the assay with B16-F10 [3] were 61.25% and 4.16%, respectively. Besides, the pIC50 is 6.14 on Histone deacetylase 1, below 5.00 at Histone deacetylase 7, below 5.00 at Histone deacetylase 8 and 7.52 in assay [4]. Also, in assay [2], the inhibition entry was “inactive”.
`Nc1ccccc1NC(=O)c1ccc(-c2ncc(CNc3ccccc3)s2)cc1`: the Activity in the assay on B16-F10 [1] turned out to be 20.96%. In addition, the pIC50 was 6.29 at Histone deacetylase 1, below 5.00 on Histone deacetylase 7, below 5.00 at Histone deacetylase 8 and 7.28 in assay [4]. Besides, the inhibition entry in assay [2] was “inactive”.
